Test results: patent US20100331336A1, “PROTECTIVE EFFECT OF HIGH DOSE FOLATE ON MYCARDIAL ISCHEMIA” (Universiteit Antwerpen, priority 2008, published 2010)

What was measured:
[1] = system: isolated hearts of adult Wistar rats; test: Coronary flow and vasodilator response in isolated hearts; set-up: species or system rat
Procedure: (§1) Adult Wistar rats (n=28) were anesthetized (pentobarbital 60 mg/kg), and hearts rapidly excised and mounted onto a retrograde perfusion system (Emka, Paris, France) using warmed, oxygenated buffered Krebs-Henseleit solution at constant perfusion pressure (75 mmHg). Hearts were paced at 300 bpm, and maintained in an unloaded state. Coronary flow was measured by an in-line ultrasonic flow probe (Transonic Systems, Ithaca, N.Y., USA). After 30 min equilibration, vasodilators drugs (bradykinin and sodium nitroprusside) were infused by bolus injection (50 μl, 10^−8-10^−5.5 M i.c.) and coronary flow reserve assessed at constant perfusion pressure. After re-establishing baseline, hearts received FA (4.5 10^−6M i.c.) or vehicle for 30 min. Afterwards the hearts were subjected to 40-min zero coronary flow followed by 40 min of reperfusion. Coronary effluent was collected, concentrated (Sartorius-Sipan, Lier, Belgium) and analysed for lactate dehydrogenase (Vitros 950AT, O. C. D., Beerse, Belgium). Coronary vasodilator responses to the same two agents were repeated following reperfusion.

[2] = system: Adult Wistar rats, coronary artery ligation; test: Open chest echocardiography during LAD occlusion; format: in vivo, rat; settings: FA pre-treatment; at 30 min ischemia
Procedure: (§2) Adult Wistar rats received FA (10 mg/day unless otherwise stated) or placebo by oral gavage for 7-days prior to performing the ischemia/reperfusion (IR) experiment. A total of 131 rats were used, the sample size reflecting the requirement for multiple assays that could not be performed in each animal, but were rather obtained in different subsets of the total group. Animals were anesthetized (pentobarbital 60 mg/kg), intubated via tracheotomy, and ventilated (Harvard Apparatus, Mass.). ECG was monitored and temperature maintained at 37.5° C. The left anterior artery was exposed through the 4-5th intercostal space and a suture placed around it, and transient coronary artery ligation performed for 30 min with (n=85) or without (n=46) 90 min reperfusion. In one subgroup of reperfused animals (n=9), FA was provided 10 minutes after the onset of LAD occlusion (i.e. 20 minutes before the onset of reperfusion), delivered as an IV-bolus.
(§3) LV function was assessed in vivo by pressure-volume loops (n=14) during both ischemia and following reperfusion. […] Open chest myocardial anterior wall motion was also measured using a Sequoia—Acuson C256 equipped with 15 MHz linear transducer (Sequoia C256 Echocardiography System, Acuson Corporation, Mountain View, Calif.) at the parasternal view of the left ventricle chamber as described.

[3] = system: Adult Wistar rats, coronary artery ligation; test: HPLC analysis of high energy phosphate metabolism in anterior wall samples; format: in vivo, rat; settings: FA pre-treatment; 30 min ischemia, versus controls
Procedure: as §2, with “In one subgroup of reperfused animals (n=9), FA was provided 10 minutes after the onset of LAD occlusion (i.e. 20 minutes before the onset of reperfusion), delivered as an IV-bolus.” left out
Snap frozen samples (n=24) from the anterior wall (±FA pre-treatment; ±30 min ischemia, no reperfusion) were de-proteinized and subjected to HPLC analysis of water-soluble low-molecular weight compounds reflecting tissue oxid-oreductive and energy status. High-energy phosphates, oxypurines (hypoxanthine, xanthine, and uric acid), nucleosides (inosine and adenosine), malondialdehyde, and reduced and oxidized glutathione were measured by ion-pairing HPLC as described (Takimoto et al., 2005).

myocardial superoxide = test: Myocardial superoxide by lucigenin-enhanced chemiluminescence; format: in vivo, rat; settings: for decline of O2^− generation on pre-incubation of extracts: 100 μM BH4
Procedure: as §2
(§4) Superoxide was assessed by lucigenin (5 μM)-enhanced chemiluminescence (Beckman LS60001C, n=23)^22 and fluorescent microtopography (dichlorodihydro-fluorescein diacetate, DCF, n=16) and dihydroethidium, DHE, n=24) (Gupte et al., 2005). The direct anti-oxidants effects of folic acid were analysed using an in vitro xanthine/xanthine oxidase system (Antoniades et al., 2006) and compared with Tempol.

serum homocysteine = settings: achievable with 0.8 mg/d; cited from earlier work
[4] = system: isolated hearts of adult Wistar rats; test: In vitro IR model, isolated perfused hearts: infarct size and LDH; set-up: species or system rat
Procedure: as §1
(§5) Infarct size was assessed in 31 rats, with area at risk (AAR) determined by negative staining with Evans blue injected during coronary occlusion, and subsequent staining with TTC to detect myocardial necrosis. LV (free wall+whole septum), AAR (neg Evan's Blue) and area of necrosis (TTC-white) were measured by planimetry (Soft Imaging system GmbH, Analysis pro version 3.00), and digitized images subjected to equivalent background subtraction, brightness, and contrast enhancement for improved clarity and sharpness. For in vitro studies, TTC staining was not preceded by Evans' blue staining because global ischemia was created. Contraction band necrosis was assessed in vivo rat hearts (n=22) fixed in Carnoy solution and stained with Masson's trichrome. Serial adjacent fields were examined throughout the full LV to calculate the percent myocardium with contraction bands present. Similar analysis was performed for TUNEL-positivity (Chemicon Intern, Temecula, Calif.), also expressed as percent LV area.

[5] = system: Adult Wistar rats, coronary artery ligation; test: In vivo ischemia/reperfusion model, pressure-volume loop hemodynamics; set-up: species or system rat; settings: FA 10 mg/d oral pre-treatment 7 days; 30 min LAD occlusion
Procedure: as §2, §3

[6] = system: Adult Wistar rats, coronary artery ligation; test: Infarct size analysis and histology, in vivo IR; set-up: species or system rat
Procedure: as §2, §5

eNOS = eNOS monomer/dimer formation and NOS enzymatic activity in IR tissue; format: in vivo, rat
Procedure: as §2
SDS-resistant eNOS dimers and monomers were assayed on ischemia/reperfusion-tissue (n=16) using low temperature SDS-PAGE as previously described (Takimoto. et al., 2005) NOS enzymatic activity was assessed by arginine to citrulline conversion assay from extracts obtained from frozen myocardium (n=15) (Takimoto. et al., 2005).

[7] = system: superoxide generated by xanthine/xanthine oxidase; test: In vitro xanthine/xanthine oxidase O2− generating system; format: biochemical; settings: lucigenin-enhanced chemiluminescence, FIG. 5F
Procedure: as §4

[8] = system: Adult Wistar rats, coronary artery ligation; test: Ischemia and reperfusion arrhythmia, in vivo IR; set-up: species or system rat
Procedure: as §2

[9] = system: Adult Wistar rats, coronary artery ligation; test: Regional myocardial blood flow by microspheres; format: in vivo, rat; settings: FA pre-treatment
Procedure: as §2
Regional myocardial blood flow was assessed (n=12) by nuclear-activated microspheres ([…], BioPal, Worcester, MA) injected in the left atrium (0.3 ml of 2.5*10^6 spheres/ml) at baseline and after 5 and 30 min of ischemia (Reinhardt et al., 2001). Total counts per minute (cpm) were normalized to weight and results from the ischemic zone normalized to the remote region to provide relative blood flow before and during ischemia.

[10] = FA 10 mg i.v. after 10 min of coronary occlusion

**Q.** For Nc1nc2ncc(CNc3ccc(C(=O)N[C@@H](CCC(=O)O)C(=O)O)cc3)nc2c(=O)[nH]1 [FA, folic acid], which “Bradykinin induced maximal rise in coronary flow” value ([1]; after IR, hearts pre-treated with FA) is on record?
**A.** The value was 122.0±11.3%.

**Q.** What about the “coronary flow after ischemia” value ([1]; isolated hearts) of the same compound?
**A.** Its value is 8.9 ± 1.4 mL/min.

**Q.** What about the “coronary flow at baseline” value ([1]; isolated hearts) of the same compound?
**A.** Its value is 11.4 ± 13.8 mL/min.

**Q.** What about the Ejection fraction [2] of the same compound?
**A.** The Ejection fraction was 72.8±1.2%.

**Q.** What about the anterior-septal thickening [2] of the same compound?
**A.** Its anterior-septal thickening is 37.±5.3%.

**Q.** What about the “myocardial ATP and ADP during ischemia” value [3] of the same compound?
**A.** The value was “maintained at higher levels”.

**Q.** What about the “decline of myocardial superoxide (lucigenin chemiluminescence)” value (myocardial superoxide; FA pre-treated animals, during ischemia and after 90 minutes reperfusion) of the same compound?
**A.** The value was roughly 50%.

**Q.** What about the “decrease in serum homocysteine” value (serum homocysteine) of the same compound?
**A.** The value was 3 µmol/L.

**Q.** And the “infarct size in isolated hearts” value ([4]; FA 4.5 10^−6M i.c. 30 min, 40 min zero flow, 40 min reperfusion)?
**A.** The value was 7.7±2.8%.

**Q.** And the “reduction of myocardial necrosis in hearts studied in vitro” value ([4]; FA pre-treatment, FIG. 4D)?
**A.** The value was roughly 80%.

**Q.** What about the “lactate dehydrogenase in the coronary effluent” value ([4]; FA pre-treatment, after ischemia-reperfusion) of the same compound?
**A.** The value was “less lactate dehydrogenase”.

**Q.** And the “Peak LV pressure (systolic blood pressure) change with LAD occlusion” value [5]?
**A.** The value was “changed little”.

**Q.** What about the “TUNEL staining, % LV” value [6, 10] of the same compound?
**A.** Its value is 4.3±1.3 % LV.

**Q.** What about the “area at risk (AAR)” value [6, 10] of the same compound?
**A.** The value was 52.4±5.5%.

**Q.** What about the “contraction band necrosis, % LV” value [6, 10] of the same compound?
**A.** The value was 5.1±0.7 % LV.

**Q.** What about the “infarct size relative to AAR” value ([6]; FA 10 mg i.v. after 10 min of coronary occlusion, n=5) of the same compound?
**A.** Its value is 3.0±2.2%.

**Q.** What about the “infarct size, % area at risk” value ([6]; oral FA 10 mg/d pre-treatment 7 days, 30 min ischemia, 90 min reperfusion) of the same compound?
**A.** The value was 3.8±1.2%.

**Q.** What about the “Reperfusion contraction band necrosis, % of the LV” value ([6]; oral FA pre-treatment, IR) of the same compound?
**A.** Its value is 4.6%±1.2.

**Q.** What about the “TUNEL-positive myocytes, % of LV fields” value ([6]; oral FA pre-treatment, IR) of the same compound?
**A.** The value was 4.3±1.3%.

**Q.** What about the “infarct size with lower doses” value ([6]; pre-treatment by 40% and 10% of the principal FA dose (1 and 4 mg/d)) of the same compound?
**A.** The value was “decline in infarct size occurred”.

**Q.** What about the “eNOS ratio of dimer/monomer” value (eNOS; FA-pre-treated IR hearts) of the same compound?
**A.** Its value is “near normal”.

**Q.** And the “NOS activity, arginine-citrulline conversion” value (eNOS; treated vs. non-treated hearts, p=0.08)?
**A.** Its value is “not significant improved”.

**Q.** And the direct anti-oxidant effect [7]?
**A.** Its direct anti-oxidant effect is “substantial anti-oxidant effects”.

**Q.** And the reperfusion arrhythmia occurrence ([8]; FA treated)?
**A.** The reperfusion arrhythmia occurrence was “no FA treated animal”.

**Q.** And the “lethal ventricular arrhythmia triggered by ischemia, % of rats” value ([8]; FA-treated)?
**A.** Its value is 8.3%.

**Q.** What about the “ratio of ischemic/remote zone myocardial perfusion, decline” value ([9]; after 5 min of LAD ligation) of the same compound?
**A.** The value was −77.7±5.1%.

**Q.** What about the “flow compared to the remote region” value ([9]; at 30 minutes of ischemia) of the same compound?
**A.** The value was −78.4±9.3%.

**Q.** Which “decline of O2^− generation on pre-incubation of extracts” value (myocardial superoxide; extracts of FA pre-treated hearts) does the source give for C[C@H](O)[C@H](O)[C@H]1CNc2nc(N)[nH]c(=O)c2N1 [BH4, tetrahydrobiopterin] here?
**A.** Its value is 52.1±11.3%.

**Q.** What about the “decline of O2^− generation on pre-incubation of extracts” value (myocardial superoxide; extracts of vehicle treated IR hearts) of the same compound?
**A.** The value was 90.9±0.7%.
